Tests used:
[1] = tested on: HIV; experiment: naltrexone as adjunct therapy, 50 HIV/AIDS patients in Africa with standard of care; assay type: in vivo, human
Excerpt: Naltrexone as an adjunct therapy with HIV/AIDS patients. […] HIV disease is associated with a new constellation of problems, generally referred to as “non-AIDS morbidity”, and, in the popular press, “premature aging. […] at risk for developing a number of non-AIDS conditions, including cardiovascular disease, cancer, kidney disease, liver disease, osteopenia/osteoporosis and neurocognitive disease (collectively referred to as “serious non-AIDS events”). Malignancies associated with infections such as human papilloma virus (including uro-genital and head and neck cancers), Epstein Barr Virus (including Hodgkins disease), and hepatitis B and C (hepatocellular carcinoma), are also relatively common in HIV-infected adult. […] Subtle elevations in many of these biomarkers are associated with dramatic increases in the risk of subsequent disease, including all-cause mortality For example, as compared to a well-matched uninfected population, treated HIV-infected adults have approximately 50 to 100% higher levels of the inflammatory cytokine interleukin-6 (IL-6)^(32). […] Risk factors for impaired CD4 T-cell recovery include low pre-treatment CD4+ T cell count nadir, co-infection with other viruses such as hepatitis C, older age, and perhaps viral factors (24). […]

[2] = tested on: AIDS; experiment: 3-month double-blind then open trial in 38 AIDS patients (Kaposi's sarcoma / opportunistic infection); assay type: in vivo, human
[3] = tested on: Hepatitis C; experiment: Hepatitis C case reports; assay type: in vivo, human
[4] = tested on: Hepatitis B; experiment: Hepatitis B case report; assay type: in vivo, human; settings: 1 mg
[5] = tested on: Hashimoto's patients; experiment: Hashimoto's thyroiditis case reports
Description: Patient was taking L-thyroxine and pain medications and 75 mg Zoloft.
Patients was taking Synthroid 150 mcg, Compounded T3 25 mcg, Progesterone 150 mg, Plus lots of supplements like Magnesium, D3, Methyl B12, Methyl folate, Selenium, E, Amino Restore, CLA, NAC, DE, Adaptacin.

[6] = tested on: Shingles; experiment: shingles case report; assay type: in vivo, human; settings: 4.5 mg nightly from 2013; before 8 major outbreaks over 18 months
Description: A person diagnosed with Shingles in 2010 over 18 months had 8 major outbreaks, and was treated with acyclovir, and valacyclovir, as the outbreaks continued they prescribed Lidocaine patches and pain medications. […]

[7] = tested on: myasthenia gravis patient; experiment: myasthenia gravis case report; assay type: in vivo, human; settings: drug interrupted
[8] = tested on: patients with primary progressive multiple sclerosis (PPMS); experiment: six month phase II multicenter pilot trial in primary progressive multiple sclerosis, 40 patients; assay type: in vivo, human
Description: […]. The primary end points were safety and tolerability. Secondary outcomes were efficacy on spasticity, pain, fatigue, depression, and quality of life. Clinical and biochemical evaluations were serially performed. Protein concentration of beta-endorphins (BE) and mRNA levels and allelic variants of the mu-opioid receptor gene (OPRM1) were analyzed.

[9] = tested on: MS patients; experiment: multiple sclerosis case reports; assay type: in vivo, human
[10] = tested on: Fibromyalgia patient; experiment: Fibromyalgia and Epstein Barr case report; assay type: in vivo, human
Excerpt: A person was diagnosed in 1998 Fibromyalgia and Epstein Barr, had to quit work, in pain and very depressed. Various treatments over the years for pain prescribed and other problems with the disease. […]

[11] = tested on: ovarian cancer cells; experiment: ovarian cancer cells treated with different dosing regimens of naltrexone; assay type: cell-based
Description: […]. They also prevent the adhesion of cancer cells to bone marrow stromal cells and thereby inhibit the enhanced secretion of migratory factors, such as interleukin (IL)-6, TNF-α, and vascular endothelial growth factor. In research experiments, ovarian cancer cells were treated with either water as the control or different dosing regimens of naltrexone to replicate high dose versus Immediate release dosing of naltrexone.

[12] = tested on: CRPS patients
[13] = tested on: AIDS; settings: 3.0 mg daily at bedtime, 12 weeks, cited from earlier work
[14] = tested on: Autoimmune Hepatitis-Type 1 patient; experiment: Autoimmune Hepatitis-Type 1 case report; settings: 4.5 mg nightly
[15] = tested on: A549 (lung) and HCT116 (CRC); experiment: continuous 48 h exposure, lung and CRC cells

For O=C1CC[C@@]2(O)[C@H]3Cc4ccc(O)c5c4[C@@]2(CCN3CC2CC2)[C@H]1O5 [Immediate release naltrexone, naltrexone], the “inflammatory cytokine and Th1/Th2 balance” value ([1]; adjunct to standard of care (ART)) was “Secreased inflammatory cytokine and a shift from Th1 (pro-inflammatory) to Th2 (anti-inflammatory)”, the “opportunistic infection and quality of life” value ([1]; adjunct to standard of care, long term) was “reduction in opportunistic infection and a higher quality of live” and the “elevated levels of serum alpha interferon (IFN-α) vs placebo” value ([2]; 1.75 mg nightly at bedtime, 3-month double-blind period, p<0.01) was “significant drop”. For the same compound, the “survival of patients who did not show a decline in IFN-α” value ([2]; 2 of the 15) was 13%, the “mean IFN-α level after treatment” value ([2]; 23 patients with decline, from mean 144.9 IU. over a 12-month period) was 11.0 IU and the “survival of patients who showed a decline in IFN-α” value ([2]; Nineteen of the 23, p<0.01) was 83%. The side effects ([2]; during the conduct of the trial) was “No side effects were noted”, the “Viral load, person, Hepatitis C & stage 4 cirrhosis” value ([3]; 4.5 mg, by August of 2011) was 8.3 million and the “HCV viral load, person” value ([3]; May 2010) was 11.400. For the same compound, the “ultrasound and liver enzymes, person, Hepatitis C” value ([3]; all other medication stopped) was “No fatty liver, Liver enzymes dropped to normal”, the “HCV viral load, person” value ([3]; started February of 2009, May 2009, from over a million in January 2009) was 49,000 and the “additional benefits, child, Hepatitis B” value [4] was “resolutions of eczema”. For the same compound, the “serology, child, Hepatitis B” value ([4]; within 7 months) was “Sero-conversion to negative antigens and positive antibodies”, the “ALT/AST, child, Hepatitis B” value ([4]; within one month) was “decreased to normal” and the “viral load, child, Hepatitis B” value ([4]; within one month, from 59.2 million) was 53,000. The “lab work, person, Hashimoto's” value ([5]; 1.5 mg) was “Latest lab work was normal in all areas”, the “side effect, person, Hashimoto Thyroiditis” value ([5]; 3 mg in morning and 1 mg at night) was “strange dreams” and the “TPO levels, person, Hashimoto's” value ([5]; 4.5 mg with T3/T4 capsules from August 2011, initial 350) was “returned to normal”. The “TgAb, person, Hashimoto's” value ([5]; titrated 1.5, 3, 4.5 mg, from 77) was less than 1, the “outbreaks, person, Shingles” value [6] was “have not had a single outbreak” and the “effect of running out of drug, person, myasthenia gravis” value [7] was “symptoms began to return within 72 hours”. The Neurological disability ([8]; 40 patients) was “progressed in only one patient”, the “dropouts and major adverse events” value ([8]; 40 patients) was “Five dropouts and two major adverse events occurred” and the spasticity ([8]; end of the six month trial) was “significant reduction of spasticity”. For the same compound, the “beta-endorphins (BE) concentration” value ([8]; human, in vivo) was “increased during the trial”, the safety and tolerability ([8]; human, in vivo) was “safe and well tolerated” and the “first three months, person, Secondary Progressive MS” value ([9]; 1.5 mg at bedtime increasing to 3 mg from July of 2005) was “no real improvement in the first three months accept no flair of MS”. The “disease course, person, relapsing remitting MS” value ([9]; 1.5 mg increasing to 4.5 mg nightly with progesterone, estriol, Cortef) was “back at work for 5 years without an exacerbation”, the “MRI, person, secondary-progressive multiple sclerosis (SPMS)” value ([9]; 1.5 mg then 3 mg from July of 2009, January of 2011) was “MRI showed reduced plaque and lesion size” and the “disease course, person, fast deteriorating M.S.” value ([9]; 1.5 mg, 3 mg, then 4.5 mg for seven months) was “the disease has stabilized and the progressive deterioration has stopped”. The “disease course, person, M.S. of 35 years” value ([9]; 3 mg for 30 days then 4.5 mg at bedtime, over three months) was “regained their ability to see and walk and their cognitive ability improved as well”, the “mobility, person four, Relapsing Remitting MS, wheelchair bound” value ([9]; 3 mg nightly from July 2004) was “walking again with a cane for assistance within 10 days” and the “relapses, person two, Relapsing Remitting MS” value ([9]; 4.5 mg at bedtime since 2002) was “has not had a one relapse”. The “side effects, person four, Relapsing Remitting MS” value ([9]; 4.5 mg nightly from August of 2004) was “minimal side effects some insomnia”, the “relapses, person four, Relapsing Remitting MS” value ([9]; 4.5 mg nightly, last update 2010) was “no relapses” and the “MRI, person two, Relapsing Remitting MS” value ([9]; 4.5 mg, over the last 8 years) was “no progression of the disease”. The “mobility, person, Secondary Progressive MS” value ([9]; months 3 to 6, later 4.5 mg) was “upgraded from wheelchair to cane”, the “decrease of pain level, person, Fibromyalgia and Epstein Barr” value ([10]; 0.5 mg in 2004 increased to 3 mg) was 90% and the “antidepressant use, person, Fibromyalgia” value ([10]; 0.5 mg increased to 3 mg) was “no longer need to take anti-depressants”. The “growth of cancer cells” value ([11]; Immediate release low or short-term dosing, control water) was “growth of cancer cells was slowed”, the “growth of cancer cells” value ([11]; high dose of naltrexone) was “cancer cells were stimulated and grew faster” and the “pain scores NRS (out of 10), person one, CRPS and EDS” value ([12]; 3 mg once a day, then 4.5 mg per day, from (7-10)/10) was 3-5. For the same compound, the “allodynia and sensitivity, person one, CRPS” value ([12]; 3 mg then 4.5 mg per day) was “decrease in allodynia, as well as a decrease in sensitivity to touch and temperature change”, the “dystonia, initial treatment, person one, CRPS” value ([12]; 3 mg then 4.5 mg per day, before surgery) was “no effect on the dystonia” and the “side effects, person three, CRPS” value ([12]; 4.5 mg per day) was “No side effects”. For the same compound, the “average pain on the Numeric Rating Scale (NRS), person three, CRPS” value ([12]; 4.5 mg per day at night, before 8 to 10) was 5 to 6, the “requirements for intravenous ketamine infusions, person three, CRPS” value ([12]; 4.5 mg per day, by March of 2012, 6 week intervals) was “not as frequent” and the “walking, person three, CRPS” value ([12]; 4.5 mg per day, cane used continuously since 2006) was “able to walk without a cane”. The “dystonic spasms, person three, CRPS” value ([12]; 4.5 mg per day, within 2 months) was “dystonic spasms discontinued”, the “post-operative pain NRS (out of 10), person one, CRPS” value ([12]; 3 weeks after resuming drug) was 4-6 and the “side effects, person one, CRPS” value ([12]; 18 months) was “No side effects”. For the same compound, the “fixed dystonia at cast removal, person one, CRPS” value ([12]; after ankle reinforcement surgery, on drug) was “remission of the leg's fixed dystonia”, the “CRPS symptoms, person one” value ([12]; maintained for 18 months) was “CRPS symptoms have resolved completely” and the lymphocyte mitogen responses [13] was “declined on placebo and not on Immediate release naltrexone”. The “pathologically elevated levels of acid-labile alpha interferon” value [13] was “declined significantly”, the “incidence of opportunistic infections (patients)” value ([13]; placebo 5 out of 16 (31%)) was 0 of the 22 and the “side effects, person, Autoimmune Hepatitis-Type 1” value [14] was “vivid dreams and mild indigestion in the first two weeks”. The “effect on A549 and HCT116” value [15] was “no effect”.
